{"source": "patent US7981939B2", "about": "“Application of 2-bromide-isovanillin for the manufacture of a medicament for anti-cancer or/and radiation/chemotherapy sensitization” (Institute of Radiation Medicine, Academy of Military …, priority 2005, dated 2011)", "key": {"[1]": {"system": "human cervical cancer cell line HeLa", "assay": "Clonogenic assay, 6 days of continuous action, HeLa", "format": "cell-based", "method": "(§1) Human cervical cancer cell line HeLa, human liver cancer cell line HepG2/7221/7402, human ovarian cancer cell line HOC8/A2780, human glioma cell line BT325, lung cancer cell line A549, brain metastatic lung cancer cell line BT72 and normal human hepatic cell line LO2 were all grown in DMEM liquid medium supplemented with 10% newborn calf serum. Human leukemia cell line Jurkat was grown in 1640 medium supplemented with 10% newborn calf serum. The above cell lines were cultured in a CO2 incubator at 5% CO2 at 37° C.\n(§2) By way of example, human cervical cancer cell line HeLa, lung cancer cell line A549, and ovarian cancer cell lines A2780 and HOC8 were used to determine the killing of cancer cells by 2-bromo-isovanillin for 6 days. Specifically, four groups were formed according to the type of the cancer cells. The cancer cells were diluted as appropriate, and were respectively plated into Petri dishes with a diameter of […], the amount of the cells adjusted depending on the concentration of 2-bromo-isovanillin to be added. Once adherence was achieved, each cell type received dosages of 0, 5, 10, 15, 20, 25, 30 and 35 μmol/L in triplicates. After 6 days of continuous action, the medium was replaced by a drug-free DMEM liquid medium. […] Then the cell clones were counted. The experimental data were expressed as the mean of 2-4 experiments and were plotted as a growth curve of cancer cells."}, "[2]": {"system": "HeLa, HepG2/7221/7402, HOC8/A2780, BT325, A549, BT72 and IB-4 cancer cell lines", "assay": "Clonogenic assay, 24 hrs of continuous action, ten cancer cell lines", "format": "cell-based, human", "settings": "5, 10, 20 and 40 μmol/L", "method": "as §1\nBy way of example, human cervical cancer cell line HeLa, human liver cancer cell lines HepG2/7221/7402, human ovarian cancer cell lines HOC8/A2780, human glioma cell line BT325, lung cancer cell line A549, brain metastatic lung cancer cell line BT72 and prostate cancer cell line IB-4 were used to determine the killing of cancer cells by 2-bromo-isovanillin for 24 hrs. Specifically, ten groups were formed according to the type of the cancer cells. The cancer cells were diluted as appropriate, and were respectively plated into Petri dishes with a diameter of […], the amount of the cells adjusted depending on the concentration of 2-bromo-isovanillin to be added. […] Then the cell clones were counted. The experimental data were expressed as the mean of […] and were plotted as a growth curve of cancer cells, as shown in FIG. 3."}, "[3]": {"system": "human cervical cancer cell line HeLa", "assay": "MTT assay, proliferation of HeLa cells", "format": "cell-based", "method": "as §1\nBy way of example, human cervical cancer cell line HeLa was used to study the effect of vanillin on the proliferation of cancer cells by MTT assay. Specifically, human cervical cancer cells HeLa were seeded into a 96-well plate at a density of 5×10^3 cells/well, and were divided into four groups. To each of the groups vanillin was added at a concentration of 0, 100, 250 or 500 μmol/L, respectively, and was allowed to grow for 4 days. Using the MTT assay, the optical density (OD) values at 490 nm were measured and recorded every day, wherein the OD value is indicative of the number of cells, i.e., the proliferation of cells.\nBy way of example, human cervical cancer cell line HeLa was used to study the effect of several vanillin derivatives for 72 hrs on the proliferation of cancer cells by MTT assay. Specifically, human cervical cancer cells HeLa were seeded into a 96-well plate at a density of 5×10^3 cells/well, and were divided into four groups. To each of the groups were added increasing concentrations (0, 10, 20, 30, 40 μmol/L) of vanillin derivatives ethyl vanillin (Code No. VAND3206), 4-methoxy vanillin (Code No. VAND3207), isovanillin (Code No. VAND3209) and 2-bromo-isovanillin (Code No. VAND3208), and the cells were cultured for 72 hrs. Using the MTT assay, the optical density (OD) values at 490 nm were measured and recorded every day, wherein the OD value is indicative of the number of cells, i.e., the proliferation of cells.\nBy way of example, human cervical cancer cell line HeLa was used to study the inhibitory effect of 2-bromo-isovanillin at different concentrations for different periods of time on the proliferation of cancer cells by MTT assay. Specifically, human cervical cancer cells HeLa were seeded into a 96-well plate at a density of 5×10^3 cells/well, and were divided into […]. To each of the groups 2-bromo-isovanillin was added at a concentration of 0, 10, 20, 30, 40 or 50 μmol/L, and was cultured for 14 days, respectively. Using the MTT assay, the optical density (OD) values at 490 nm were measured and recorded every day, wherein the OD value is indicative of the number of cells, i.e., the proliferation of cells."}, "[4]": {"system": "ovarian cancer cell line HOC8", "assay": "Clonogenic assay, 6 days of continuous action, HOC8", "format": "cell-based, human", "method": "as §1, §2"}, "[5]": {"system": "human liver cancer cell line HepG2", "assay": "G2/M arrest and apoptosis by flow cytometry, HepG2", "format": "cell-based", "settings": "HepG2, 40 μmol/L", "method": "By way of example, human liver cancer cell lines HepG2 and 7402, human ovarian cancer cell lines HOC8 and A2780, human glioma cell line BT325, lung cancer cell line A549, brain metastatic lung cancer cell line BT72 and prostate cancer cell line IB-4 were used to investigate the G2/M arresting of solid tumor cells of different tissue origins by 2-bromo-isovanillin as measured by the ratio of cells at G2/M phase. Specifically, the cancer cells were divided into two groups, and were treated with 0 or 40 μmol/L 2-bromo-isovanillin for 24 hours. Then the cells were harvested and analyzed for changes in cell cycle and cell apoptosis by flow cytometry.\n2. In a separate experiment, the cell cycle profile and apoptosis rate of human liver cancer cell line HepG2 treated with 40 μmol/L 2-bromo-isovanillin for different periods of time (0-50 h) were studied, and the results are shown in FIGS. 7A and 7B (1, 2, 3, 4 respectively represent the apoptosis results for treatment with 40 μmol/L 2-bromo-isovanillin for 0, 8, 16, 24 hrs)."}, "[6]": {"system": "normal human hepatic cell line LO2", "assay": "Cell cycle profile and apoptosis by flow cytometry, LO2", "format": "cell-based", "settings": "LO2, 40 μmol/L, 24 hrs", "method": "By way of example, human liver cancer cell line HepG2 and normal human hepatic cell line LO2 were used to study the inhibitory effect of 2-bromo-isovanillin on the growth of liver cancer cells and normal cells by clonogenic assay. Specifically, five groups were formed according to the drug concentration, and the liver cancer cells HepG2 and normal hepatic cells LO2 were respectively treated with 5, 10, 20, 40 and 80 μmol/L 2-bromo-isovanillin for 24 hrs. Then cell survival was measured by clonogenic assay (FIG. 8). In addition, the cell cycle profile and apoptotic effect were compared using flow cytometry."}}, "data": [{"smiles": "COc1ccc(C=O)c(Br)c1O", "note": "[2-bromo-isovanillin, 2-bromo-3-hydroxy-4-methoxybenzaldehyde]", "values": [{"measurement": "survival rate", "setting": "[1]; 20 μmol/L", "result": "lower than 10%"}, {"measurement": "proliferation", "setting": "[1]; 30 μmol/L", "result": "completely inhibited"}, {"measurement": "effect on the proliferation of all ten cancer cell lines", "setting": "[2]", "result": "significant inhibitory effect"}, {"measurement": "effect on the proliferation of HeLa cells", "setting": "[3]; 20 μmol/L", "result": "remarkable inhibitory effect"}, {"measurement": "effect on the proliferation of HeLa cells", "setting": "[3]; 30 μmol/L or above for 4 days", "result": "completely lost their proliferative capabilities"}, {"measurement": "effect on the proliferation of HeLa cells", "setting": "[3]; concentrations of less than 40 μmol/L, up to 72 hrs", "result": "significant inhibition"}, {"measurement": "survival rate", "setting": "[4]; HOC8, 20 μmol/L", "result": "lower than 10%"}, {"measurement": "proliferation", "setting": "[4]; HOC8, 30 μmol/L", "result": "completely inhibited"}, {"measurement": "treatment time after which obvious G2/M arrest began to appear", "setting": "[5]", "result": 4, "unit": "h"}, {"measurement": "treatment time of peak G2/M arrest", "setting": "[5]", "result": "8 to 16", "unit": "h"}, {"measurement": "cell cycle effect", "setting": "[5]; 24 hrs", "result": "arrested at G2/M phase"}, {"measurement": "cell apoptosis", "setting": "[5]; after 8 hrs of treatment", "result": "significantly increased"}, {"measurement": "cells at G0/G1 phase", "setting": "[5]; at the time of G2/M arrest", "result": "significantly decreased"}, {"measurement": "G2/M arrest and apoptosis in normal hepatic cells", "setting": "[6]", "result": "did not result in G2/M arrest or significant cell apoptosis"}]}]}
